According to US8664203B2, “Thiazole derivatives and their use as P2Y12 receptor antagonists” (Actelion Pharmaceuticals Ltd., priority 2009, dated 2014):

biological target: T1, human P2Y12 receptor (Homo sapiens, UniProt Q9H244); assay: P2Y12 receptor binding assay; settings: CHO cells with recombinant expression of the human P2Y12 receptor; tritium-labeled 2-methyl-S-ADP; RT, 2 hours
T1 construct: expressed in transfected cells; host or cells: CHO cells
Description: P2Y12 Receptor Binding Assay
Chinese Hamster Ovary (CHO) cells with recombinant expression of the human P2Y12 receptor were cultured in 24 well cell-culture plates. Cells were washed three times with binding buffer (50 mM Tris pH 7.4, 100 mM NaCl, 1 mM EDTA, 0.5% BSA). The cells were then incubated with 0.5 ml per well binding buffer containing tritium-labeled 2-methyl-thio-adenosine 5′-diphosphate (2-methyl-S-ADP) (between 100′000 and 300′000 dpm per well) and various concentrations of test compounds. After incubation at RT for 2 hours, cells were washed three times with binding buffer. Then, cells were solubilized by addition of 0.5 ml solubilization buffer (SDS, NaOH, EDTA). The content of each well was then transferred into beta-counter vials and 2.0 ml of Ultima Gold Scintillation liquid was added.

T1 sequence (Q9H244 whole entry): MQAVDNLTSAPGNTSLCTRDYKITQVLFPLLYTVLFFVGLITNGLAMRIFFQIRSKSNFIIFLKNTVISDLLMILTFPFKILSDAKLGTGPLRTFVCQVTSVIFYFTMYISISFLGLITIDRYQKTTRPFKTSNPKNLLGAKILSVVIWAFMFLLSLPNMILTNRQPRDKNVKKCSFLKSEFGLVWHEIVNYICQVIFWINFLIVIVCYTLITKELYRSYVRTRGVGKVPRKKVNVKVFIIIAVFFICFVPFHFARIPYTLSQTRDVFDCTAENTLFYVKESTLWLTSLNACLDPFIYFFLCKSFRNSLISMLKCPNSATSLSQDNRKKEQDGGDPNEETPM

IC50 [nM] | Compound
71 | CCCCOC(=O)N1CCN(C(=O)CNC(=O)c2nc(-c3ccccc3)sc2NCCC(=O)O)CC1 [Example 61, 4-(2-{[5-(2-Carboxy-ethylamino)-2-phenyl-thiazole-4-carbonyl]-amino}-acetyl)-piperazine-1-carboxylic acid butyl ester]
13 | CCCCOC(=O)N1CCN(C(=O)[C@H](CCC(=O)O)NC(=O)c2nc(-c3ccccc3)sc2CCC(=O)O)CC1 [Example 20, 4-((S)-4-Carboxy-2-{[5-(2-carboxy-ethyl)-2-phenyl-thiazole-4-carbonyl]-amino}-butyryl)-piperazine-1-carboxylic acid butyl ester]
547 | CCCCOC(=O)N1CCN(C(=O)CNC(=O)c2nc(-c3ccccc3)c(CCC(=O)OC)s2)CC1 [Example 54, 4-(2-{[5-(2-Methoxycarbonyl-ethyl)-4-phenyl-thiazole-2-carbonyl]-amino}-acetyl)-piperazine-1-carboxylic acid butyl ester]
1160 | CCCCOC(=O)N1CCN(C(=O)CNC(=O)c2nc(-c3ccccc3)c(-c3ccccc3)s2)CC1 [Example 50, 4-{2-[(4,5-Diphenyl-thiazole-2-carbonyl)-amino]-acetyl}-piperazine-1-carboxylic acid butyl ester]
39 | CCCCOC(=O)N1CCN(C(=O)[C@H](CCC(=O)O)NC(=O)c2nc(-c3ccccc3)sc2N2CCOCC2)CC1 [Example 23, 4-{(S)-4-Carboxy-2-[(5-morpholin-4-yl-2-phenyl-thiazole-4-carbonyl)-amino]-butyryl}-piperazine-1-carboxylic acid butyl ester]
1560 | CCCCCCN(C)c1sc(C(=O)NCC(=O)N2CCN(C(=O)OCCCC)CC2)nc1-c1ccccc1 [Example 60, 4-(2-{[5-(Hexyl-methyl-amino)-4-phenyl-thiazole-2-carbonyl]-amino}-acetyl)-piperazine-1-carboxylic acid butyl ester]
9150 | CCOC(=O)N1CCN(C(=O)CNC(=O)c2csc(-c3ccccc3)n2)CC1 [Example 1, 4-{2-[(2-Phenyl-thiazole-4-carbonyl)-amino]-acetyl}-piperazine-1-carboxylic acid ethyl ester]
134 | CCCCOC(=O)N1CCN(C(=O)CNC(=O)c2nc(-c3ccccc3)sc2NCCC(=O)OCC)CC1 [Example 62, 4-(2-{[5-(2-Ethoxycarbonyl-ethylamino)-2-phenyl-thiazole-4-carbonyl]-amino}-acetyl)-piperazine-1-carboxylic acid butyl ester]
19 | CCCCOC(=O)N1CCN(C(=O)[C@H](CCC(=O)O)NC(=O)c2nc(-c3ccccc3)sc2/C=C/COC)CC1 [Example 21, 4-((S)-4-Carboxy-2-{[5-((E)-3-methoxy-propenyl)-2-phenyl-thiazole-4-carbonyl]-amino}-butyryl)-piperazine-1-carboxylic acid butyl ester]
45 | CCCCOC(=O)N1CCN(C(=O)[C@H](CCC(=O)O)NC(=O)c2nc(-c3ccccc3)c(Br)s2)CC1 [Example 56, 4-{(S)-2-[(5-Bromo-4-phenyl-thiazole-2-carbonyl)-amino]-4-carboxy-butyryl}-piperazine-1-carboxylic acid butyl ester]

Compound | IC50 [nM]
CCCCOC(=O)N1CCN(C(=O)[C@H](CP(=O)(OCC)OCC)NC(=O)c2nc(-c3ccccc3)sc2N(C)CCCC)CC1 [Example 46, 4-[(R)-2-{[5-(Butyl-methyl-amino)-2-phenyl-thiazole-4-carbonyl]-amino}-3-(diethoxy-phosphoryl)-propionyl]-piperazine-1-carboxylic acid butyl ester] | 821
CCCCOC(=O)N1CCN(C(=O)[C@H](CP(=O)(N[C@@H](C)C(=O)OCC)N[C@@H](C)C(=O)OCC)NC(=O)c2csc(-c3ccccc3)n2)CC1 [Example 58, N,N′-Bis-((S)-1-Ethoxycarbonylethyl)-(R)-2-[(2-phenyl-thiazole-4-carbonyl)-amino]-3-oxo-3-(4-butoxy-carbonyl-piperazin-1-yl)-propyl-phosphonic acid diamide] | 1220
